In ChEMBL document CHEMBL3739338, “Inhibition of carbonic anhydrase isoforms I, II, IV, VII and XII with carboxylates and sulfonamides incorporating phthalimide/phthalic anhydride scaffolds” (Bioorg Med Chem, 2016):

Assays:
[1] = target: Carbonic anhydrase 2 (Homo sapiens, UniProt P00918); assay: Inhibition of human carbonic anhydrase-2 preincubated for 15 mins by stopped flow CO2 dehydration assay
[2] = target: Carbonic anhydrase 4 (Homo sapiens, UniProt P22748); assay: Inhibition of human carbonic anhydrase-4 preincubated for 15 mins by stopped flow CO2 dehydration assay
[3] = target: Carbonic anhydrase 1 (Homo sapiens, UniProt P00915); assay: Inhibition of human carbonic anhydrase-1 preincubated for 15 mins by stopped flow CO2 dehydration assay
Chain of Carbonic anhydrase 1 (P00915 whole entry): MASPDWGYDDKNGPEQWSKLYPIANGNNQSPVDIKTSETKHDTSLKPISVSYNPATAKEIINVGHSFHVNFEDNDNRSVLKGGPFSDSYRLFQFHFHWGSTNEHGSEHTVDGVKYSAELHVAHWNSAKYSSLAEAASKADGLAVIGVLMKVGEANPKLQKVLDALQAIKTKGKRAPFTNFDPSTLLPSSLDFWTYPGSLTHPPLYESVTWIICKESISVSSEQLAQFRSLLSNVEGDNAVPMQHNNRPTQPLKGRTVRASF

Chain of Carbonic anhydrase 4 (P22748 whole entry): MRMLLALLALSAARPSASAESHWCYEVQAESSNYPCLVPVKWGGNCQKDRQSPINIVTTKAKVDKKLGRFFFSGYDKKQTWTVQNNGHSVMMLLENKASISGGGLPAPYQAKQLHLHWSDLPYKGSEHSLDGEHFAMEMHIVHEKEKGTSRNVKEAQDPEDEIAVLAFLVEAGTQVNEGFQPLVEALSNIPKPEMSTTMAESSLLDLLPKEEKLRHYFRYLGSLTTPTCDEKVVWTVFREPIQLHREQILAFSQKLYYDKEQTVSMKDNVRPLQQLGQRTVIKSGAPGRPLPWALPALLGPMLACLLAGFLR

| Structure (SMILES) | Ki [1] [µM] | Ki [2] [µM] | Ki [3] [µM] |
| --- | --- | --- | --- |
| O=C(Nc1ccccc1C(=O)O)c1ccc2c(c1)C(=O)OC2=O | > 10 | – | – |
| O=C(Nc1ccccc1C(=O)O)c1ccc2c(c1)C(=O)N(c1ccccc1)C2=O | > 10 | > 10 | > 10 |
| O=C(Nc1ccccc1C(=O)O)c1ccc2c(c1)C(=O)N(Cc1ccccc1)C2=O | > 10 | – | – |
| O=C(O)c1ccc(N2C(=O)c3ccc(C(=O)Nc4ccccc4C(=O)O)cc3C2=O)cc1 | > 10 | – | > 10 |
| O=C(Nc1ccc(Cl)cc1C(=O)O)c1ccc2c(c1)C(=O)OC2=O | – | > 10 | – |
| Cc1ccc(NC(=O)c2ccc3c(c2)C(=O)OC3=O)c(C(=O)O)c1 | > 10 | – | – |
| O=C(Nc1ccc(I)cc1C(=O)O)c1ccc2c(c1)C(=O)OC2=O | > 10 | > 10 | > 10 |
| COc1cc(NC(=O)c2ccc3c(c2)C(=O)OC3=O)c(C(=O)O)cc1OC | > 10 | > 10 | – |
| NS(=O)(=O)c1ccc(N2C(=O)c3ccc(C(=O)Nc4ccccc4C(=O)O)cc3C2=O)cc1 | 0.0089 | – | – |
| NS(=O)(=O)c1ccc(CCN2C(=O)c3ccc(C(=O)Nc4ccccc4C(=O)O)cc3C2=O)cc1 | 0.0138 | – | – |
| CCOC(=O)c1ccc(N2C(=O)c3ccc(C(=O)Nc4ccccc4C(=O)O)cc3C2=O)cc1 | > 10 | – | > 10 |
| O=C(Nc1ccccc1C(=O)O)c1ccc2c(c1)C(=O)N(CCc1ccccc1)C2=O | > 10 | – | – |
| NS(=O)(=O)c1ccc(CN2C(=O)c3ccc(C(=O)Nc4ccccc4C(=O)O)cc3C2=O)cc1 | 0.0105 | – | – |
